# Source: paper PMC8501799, “Constitutive signal bias mediated by the human GHRHR splice variant 1” (Proceedings of the National Academy of Sciences of the …, 2021)
# Columns and labels:
# [1] = system: N terminus truncated GHRHRs; test: β-arrestin 1/2 recruitment (BRET), truncated receptors; format: cell-based, human; settings: HEK293T
# Experimental: HEK293T cells were seeded at a density of 30,000 cells per well into 96-well culture plates pretreated with poly-D-lysine hydrobromide. After incubation for 24 h to reach 70% to 80% confluence, the cells were transiently transfected with HA-Flag-GHRHR-Rluc8 or HA-Flag-SV1-Rluc8 and β-arrestin 1/2-Venus at a 1:9 mass ratio using lipofectamine 3000 reagent (Invitrogen) and cultured for another 24 h. Thereafter, cells were washed once and incubated for 30 min at 37 °C with HBSS buffer (pH 7.4) supplemented with 0.1% BSA and 10 mM HEPES. Five micromolars of coelenterazine h (YEASEN Biotechnology) was then added and incubated for 5 min in the dark. The bioluminescence resonance energy transfer (BRET) signals were detected with an Envision plate reader by calculating the ratio of emission at 535 nm over emission at 470 nm.
# 22Rv1 cells = test: ERK1/2 phosphorylation in prostate cancer cells; format: cell-based, human; settings: 1 μM GHRH; among three prostate cancer cell lines
# Experimental: Spodoptera frugiperda (Sf9) insect cells (Expression Systems) were grown in ESF 921 serum-free medium (Expression Systems) at 27 °C and 120 rpm. HEK293T cells were purchased from American Type Culture Collection (ATCC), cultured in Dulbecco’s modified Eagle’s medium (DMEM; Life Technologies), supplemented with 10% fetal bovine serum (FBS; Gibco), and maintained in a humidified chamber with 5% CO2 at 37 °C. The PC3 prostate cancer cell line (ATCC) was cultured in F12 medium supplemented with 10% FBS and maintained in a humidified chamber with 5% CO2 at 37 °C. 22Rv1 and LNCaP human prostate cancer cells (ATCC) were cultured in Roswell Park Memorial Institute (RPMI)-1640 medium supplemented with 10% FBS and maintained in a humidified atmosphere containing 5% CO2 at 37 °C.
# ERK1/2 phosphorylation was detected with the AlphaScreen SureFire ERK1/2 assay kit (PerkinElmer). […] The plate was incubated in the dark at 37 °C for 1 h, after which the fluorescence signal was measured by an Envision plate reader using standard AlphaScreen settings.
# The cells were then lysed with radioimmunoprecipitation assay lysis buffer (Sigma-Aldrich) on ice for 5 min and centrifuged at 12,000 rpm for 15 min. Protein concentration of the supernatant was determined by BCA protein assay kit (Beyotime). […]
# cell cycle = test: Cell cycle analysis (propidium iodide, flow cytometry); format: cell-based; settings: 1 μM GHRH, 6 h
# Experimental: Following the treatment, the cells were digested by trypsin and collected by centrifugation. Cell pellets were washed with PBS and fixed with 70% (vol/vol) ethanol at 4 °C overnight. Cells were again collected by centrifugation and washed twice with PBS. They were then resuspended in PBS containing 0.2% Triton X-100, 50 μg/mL propidium iodide (PI), and […] RNase A and incubated for 30 min at 4 °C in the dark. After incubation, fluorescence intensity was measured with a NovoCyte flow cytometer (Acea Biosciences). Cells were gated for PI staining and cell accumulation in G1, and S and G2/M phases were calculated using the NovoExpress software.
# [2] = system: GHRHR ECD mutants (L34, L62, F82, F85 to alanine); test: cAMP accumulation, ECD alanine mutants of GHRHR; format: cell-based, human; settings: any or all of four ECD residues (L34, L62, F82, F85) to alanine; HEK293T
# Experimental: GHRH-stimulated cAMP accumulation was measured by a LANCE Ultra cAMP kit (PerkinElmer). Briefly, HEK293T cells (24 h after transfection with SV1 or GHRHR) or prostate cancer cells were digested by 0.2% (wt/vol) EDTA and washed once with Dulbecco’s phosphate-buffered saline (PBS). Cells were then resuspended with stimulation buffer (Hanks’ balanced salt solution [HBSS] supplemented with 5 mM HEPES, 0.5 mM IBMX, and 0.1% [wt/vol] bovine serum albumin [BSA], pH 7.4) to a density of 0.6 million cells per milliliter and added to 384-well white plates (3,000 cells per well). […] The reaction was stopped by adding 5 μL Eu-cAMP tracer and 5 μL ULight-anti-cAMP. After 1 h RT incubation, TR-FRET signals (excitation: 320 nm, emission: 615 and 665 nm) were measured by an Envision plate reader (PerkinElmer). cAMP concentrations were interpolated by a standard curve.
smiles,measurement,setting,value
"CC[C@H](C)[C@H](NC(=O)[C@H](C)NC(=O)[C@H](CC(=O)O)NC(=O)[C@H](C)NC(=O)[C@@H](N)Cc1ccc(O)cc1)C(=O)N[C@@H](Cc1ccccc1)C(=O)N[C@H](C(=O)N[C@@H](CC(N)=O)C(=O)N[C@@H](CO)C(=O)N[C@@H](Cc1ccc(O)cc1)C(=O)N[C@@H](CCCNC(=N)N)C(=O)N[C@@H](CCCCN)C(=O)N[C@H](C(=O)N[C@@H](CC(C)C)C(=O)NCC(=O)N[C@@H](CCC(N)=O)C(=O)N[C@@H](CC(C)C)C(=O)N[C@@H](CO)C(=O)N[C@@H](C)C(=O)N[C@@H](CCCNC(=N)N)C(=O)N[C@@H](CCCCN)C(=O)N[C@@H](CC(C)C)C(=O)N[C@@H](CC(C)C)C(=O)N[C@@H](CCC(N)=O)C(=O)N[C@@H](CC(=O)O)C(=O)N[C@H](C(=O)N[C@@H](CCSC)C(=O)N[C@@H](CO)C(=O)N[C@@H](CCCNC(=N)N)C(=O)N[C@@H](CCC(N)=O)C(=O)N[C@@H](CCC(N)=O)C(=O)NCC(=O)N[C@@H](CCC(=O)O)C(=O)N[C@@H](CO)C(=O)N[C@@H](CC(N)=O)C(=O)N[C@@H](CCC(N)=O)C(=O)N[C@@H](CCC(=O)O)C(=O)N[C@@H](CCCNC(=N)N)C(=O)NCC(=O)N[C@@H](C)C(=O)N[C@@H](CCCNC(=N)N)C(=O)N[C@@H](C)C(=O)N[C@@H](CCCNC(=N)N)C(=O)N[C@@H](CC(C)C)C(N)=O)[C@@H](C)CC)C(C)C)[C@@H](C)O [GHRH, growth hormone–releasing hormone]",β-arrestin 1/2 recruitments,"[1]; deletion made before the first 82 residues, 250 μM GHRH",not affected
same,β-arrestin 1/2 recruitments,[1]; truncation of the first 89 residues or the entire ECD,enhanced
same,pERK1/2 response,22Rv1 cells,markedly stronger and longer pERK1/2 response
same,cells in G1 phase,cell cycle; decreased from 46.6,32.8%
same,cells in G2/M phase,cell cycle; increased from 22.8,37.7%
same,GHRHR-elicited cAMP responses,[2],reduced GHRHR-elicited cAMP responses
